The values that follow come from patent US10888608B2, “Costimulation of chimeric antigen receptors by MyD88 and CD40 polypeptides” (BELLICUM PHARMACEUTICALS, INC., priority 2014, dated 2021).

Data set [1] relates to CD3^+ ΔCD19^+ cells. As to the kind of experiment: Phase I clinical trial: iCasp9^+ allodepleted T cells after haplo-CD34^+ stem cell transplantation, AP1903 given for GvHD. In kind it is in vivo, human. An excerpt:
This example presents results of a phase 1 clinical trial using an alternative suicide gene strategy. Briefly, donor peripheral blood mononuclear cells were co-cultured with recipient irradiated EBV-transformed lymphoblastoid cells (40:1) for 72 hrs., allodepleted with a CD25 immunotoxin and then transduced with a retroviral supernatant carrying the iCasp9 suicide gene and a selection marker (ΔCD19); ΔCD19 allowed enrichment to >90% purity via immunomagnetic selection.
Patients developing grade 1 GvHD were treated with 0.4 mglkg AP1903 as a 2-hour infusion. Protocols for administration of AP1903 to patients grade 1 GvHD were established as follows. Patients developing GvHD after infusion of allodepleted T cells are biopsied to confirm the diagnosis and receive 0.4 mg/kg of AP1903 as a 2 h infusion. […] Patients developing grades 2-4 GvHD were administered standard systemic immunosuppressive therapy per institutional guidelines, in addition to the AP1903 dimerizer drug.
Three patients received iCasp9^+ T cells after haplo-CD34^+ stem cell transplantation (SCT), at dose levels between about 1×10^6 to about 3×10^6 cells/kg.

The conditions of data set [2]: cited from earlier work.
The subject of data set [3] is cells. The data set can be described thus: AP1903 amount needed in vitro for effective signaling of cells. It is filed as cell-based. The procedure: The fixed dose of AP1903 for injection used, for example, may be 0.4 mg/kg intravenously infused over 2 hours. The amount of AP1903 needed in vitro for effective signaling of cells is about 10-100 nM (MW: 1412 Da). This equates to 14-140 μg/L or ˜0.014-0.14 mg/kg ([…]). The dosage may vary according to the application, and may, in certain examples, be more in the range of 0.1-10 nM, or in the range of 50-150 nM, 10-200 nM, 75-125 nM, 100-500 nM, 100-600 nM, 100-700 nM, 100-800 nM, or 100-900 nM. Doses up to 1 mg/kg were well-tolerated in the Phase I study of AP1903 provided above.

In data set [4] the test system is iC9-CD19.ζ-MC CAR-modified T cells. The data set can be described thus: Raji tumor NSG mouse model with iC9-CD19.ζ-MC CAR T cells and rimiducid (Example 19). In kind it is in vivo, mice. The procedure:
FIG. 40A-FIG. 40C provide results of the enhancement of CD19 CAR-T cell efficacy in vivo by the MyD88/CD40 chimeric costimulatory molecule using the constructs of FIG. 37A-FIG. 37E. FIG. 40A: NSG mice (n=5 per group) were engrafted with Raji-luciferase tumor cells and then treated with non-transduced (NT) or iC9-CD19.ζ-MC CAR-modified T cells on day 3. Tumor growth was measured by IVIS imaging and calculated by whole-body BLI, as shown in photos. FIG. 40B provides a graph of bioluminescent counts (BLI counts) and FIG. 40C provides a graph of (Kaplan-Meier analysis from (A)).
FIG. 41A-FIG. 41C provide results of assays of the titration of inducible chimeric Caspase-9 expressing cells, using the constructs of FIG. 37A-FIG. 37E, with rimiducid. FIG. 41A and FIG. 41B: NSG mice (n=5 per group) were engrafted with CD19^+ Raji lymphoma cells and treated with 5×10^6 iC9-CD19.ζ-MC/luciferase-transduced T cells at day 3. After 6 days, mice were treated i.p. with log dilutions of rimiducid (0.00005-5 mg/kg). BLI of CAR-T cells was assessed prior to rimiducid treatment and at 24 and 48 hours post-injection. […] FIG. 41C provides graphs of serum cytokine levels, which were measured from each group before (black line) and 24 hours post-administration (gray line) of rimiducid. *P-value=<0.01.
5×10^5 Raji tumor cells were injected i.v. into NSG mice. On day 3, CD19 CAR-modified T cells were injected i.v. and bioluminescence (BLI) was measured for either tumor or T cells on a weekly basis by IVIS imaging. […]
FIG. 40 provides the results of mouse in vivo efficacy assays using the various CD19-specific CAR constructs. […] Tumor growth was measured by IVIS imaging and calculated by whole-body BLI (B). […]
FIG. 41 provides the results of mouse in vivo assays including CD19-specific CAR constructs and the Caspase-9 safety switch. […] BLI of CAR-T cells was assessed prior to rimiducid treatment and at 24 and 48 hours post-injection. C) Serum cytokine levels were measured from each group before (black line) and 24 hours post-administration (orange line) of rimiducid. *P-value=<0.01.

Data set [5] has as its system Caspase-9. As to the kind of experiment: Caspase mutant classes: basal activity and ligand IC50. Particulars: mutants marked *, predicted. Also on record: species or system human. An excerpt:
Modified Caspase-9 Polypeptides with Lower Basal Activity and Minimal Loss of Ligand IC50
Even though homo-dimerization of wild-type initiator Caspase-9 is energetically unfavorable, making them mostly monomers in solution [14-16], the low-level inherent basal activity of unprocessed Caspase-9 [15, 17] is enhanced in the presence of the Apaf-1-based “apoptosome”, its natural allosteric regulator [6]. Moreover, supra-physiological expression levels and/or co-localization could lead to proximity-driven dimerization, further enhancing basal activation. The modified cells of the present application may comprise nucleic acids coding for a chimeric Caspase-9 polypeptide having lower basal signaling activity. Polynucleotides comprising Caspase-9 mutants with lower basal signaling may be expressed in the modified cells used for cell therapy herein. […] In some examples, the amount of dimerizer administered may be determined as an amount designed to remove the highest amount, at least 80% or 90% of the modified cells. In other examples, the amount of dimerizer administered may be determined as an amount designed to remove only a portion of the modified cells, in order to alleviate negative symptoms or conditions, while leaving a sufficient amount of therapeutic modified cells in the patient, in order to continue therapy. […]

[6] abbreviates: rimiducid administered at objective evidence of sCRS.

Like-named read-outs stand apart in the source and are kept apart here.

For the molecule `CC[C@H](C(=O)N1CCCC[C@H]1C(=O)O[C@H](CCc1ccc(OC)c(OC)c1)c1cccc(OCC(=O)NCCNC(=O)COc2cccc([C@@H](CCc3ccc(OC)c(OC)c3)OC(=O)[C@@H]3CCCCN3C(=O)[C@@H](CC)c3cc(OC)c(OC)c(OC)c3)c2)c1)c1cc(OC)c(OC)c(OC)c1` (relative stereo) [AP1903, 2-Piperidinecarboxylic acid, 1-[(2S)-1-oxo-2-(3,4,5-trimethoxyphenyl)butyl]-, 1,2-ethanediylbis [imino(2-oxo-2,1-ethanediyl)oxy-3,1-phenylene[(1R)-3-(3,4-dimethoxyphenyl)propylidene]] ester, [2S-[1(R*),2R*[S*[S*[1(R*),2R*]]]]]-(9Cl)], in data set [1] (after AP1903 administration), the “time to resolution of skin and liver aGvHD” value is not above 24 h. Further, in data set [1] (within 30 minutes of infusion, patients with grade I/II aGvHD), the “ablation of CD3^+ ΔCD19^+ cells” value is reported as more than 90%. Further, in data set [1] (within 24 hours), the “further reduction of CD3^+ ΔCD19^+ cells” value is “further log reduction”. Also, the “plasma levels versus dose” value in data set [2] (0.01-1.0 mg/kg) is recorded as “directly proportional to dose”. The “plasma levels, % of maximal concentration” value in data set [2] (2 hours post-dose) is listed as approximately 7%. Besides, the “plasma levels, % of maximal concentration” value in data set [2] (10 hours post-dose) was approximately 1%. In data set [2] (Phase 1 study in volunteers), the serious adverse events result is “No serious adverse events occurred” and the “severity of adverse events” value is listed as “mild in severity”. For the same molecule, the doses well-tolerated result in data set [2] (Phase I study) was “up to 1 mg/kg”. In addition, the “mean Cmax / plasma concentrations” value in data set [2] (single doses 0.01-1.0 mg/kg infused IV over 2 hours) was 10 to 1275 ng/mL. In data set [2] (vasodilatation (facial flushing), 1 volunteer at 1.0 mg/kg), the “adverse events possibly related to AP1903” value is “Only one adverse event was considered possibly related to AP1903”. Moreover, the “amount needed in vitro for effective signaling of cells” value in data set [3] was 10 to 100 nM. Further, the “CAR T cell elimination on titration” value in data set [4] (iCaspase-9 safety switch, titrated rimiducid) is reported as “partial T cell elimination that still preserved CAR-T cell function”. Further, in data set [4] (setting [6]), the “resolution of clinical sCRS” value is reported as “complete resolution of clinical sCRS without compromising tumor control” and the “time to normalization of cytokines” value is not above 24 h.

B1: N405Q-S144Aco: Caspase-9 double mutant, class predicted (protein, UniProt P55211 1-416, looked up, variant N405Q S144A)
chain: MDEADRRLLRRCRLRLVEELQVDQLWDALLSRELFRPHMIEDIQRAGSGSRRDQARQLIIDLETRGSQALPLFISCLEDTGQDMLASFLRTNRQAAKLSKPTLENLTPVVLRPEIRKPEVLRPETPRPVDIGSGGFGDVGALEALRGNADLAYILSMEPCGHCLIINNVNFCRESGLRTRTGSNIDCEKLRRRFSSLHFMVEVKGDLTAKKMVLALLELAQQDHGALDCCVVVILSHGCQASHLQFPGAVYGTDGCPVSVEKIVNIFNGTSCPSLGGKPKLFFIQACGGEQKDHGFEVASTSPEDESPGSNPEPDATPFQEGLRTFDQLDAISSLPTPSDIFVSYSTFPGFVSWRDPKSGSWYVETLDDIFEQWAHSEDLQSLLLRVANAVSVKGIYKQMPGCFQFLRKKLFFKTS
modifications: codon optimized
notes: Caspase-9 double mutant, class predicted
Consider B1, for which the “Basal Activity” value in data set [5] is on record as “Decreased”.

B2: N405Q-T317Sco: Caspase-9 double mutant, class predicted (protein, UniProt P55211 1-416, looked up, variant N405Q T317S)
chain: MDEADRRLLRRCRLRLVEELQVDQLWDALLSRELFRPHMIEDIQRAGSGSRRDQARQLIIDLETRGSQALPLFISCLEDTGQDMLASFLRTNRQAAKLSKPTLENLTPVVLRPEIRKPEVLRPETPRPVDIGSGGFGDVGALESLRGNADLAYILSMEPCGHCLIINNVNFCRESGLRTRTGSNIDCEKLRRRFSSLHFMVEVKGDLTAKKMVLALLELAQQDHGALDCCVVVILSHGCQASHLQFPGAVYGTDGCPVSVEKIVNIFNGTSCPSLGGKPKLFFIQACGGEQKDHGFEVASTSPEDESPGSNPEPDASPFQEGLRTFDQLDAISSLPTPSDIFVSYSTFPGFVSWRDPKSGSWYVETLDDIFEQWAHSEDLQSLLLRVANAVSVKGIYKQMPGCFQFLRKKLFFKTS
modifications: codon-optimized
notes: as for B1
Turning to B2, in data set [5], the “Basal Activity” value was “Decreased”.
